Values of other authors, collected in paper PMC10537421, “Co-Dispersion Delivery Systems with Solubilizing Carriers Improving the Solubility and Permeability of Cannabinoids (Cannabidiol, Cannabidiolic Acid, and Cannabichromene) from Cannabis sativa (Henola Variety) Inflorescences” (Pharmaceutics, 2023).
Where two headings read alike, the source gives them in different places.

Legend:
[1] = for bioavailability: oral administration; for bioavailability after inhalation: smoking or vaporizing
[2] = for CBD released: SIF and SGF

| SMILES | bioavailability after sublingual administration [1] | bioavailability [1] | bioavailability after inhalation [1] | pKa (approximate) | CBD released ([2]; 1 h) | CBD released ([2]; 48 h) | CBD detected after SIF digestion (bioaccessibility) ([2]; simulated intestinal fluid) [%] | pKa |
| --- | --- | --- | --- | --- | --- | --- | --- | --- |
| CCCCCc1cc(O)c2c(c1)OC(C)(C)[C@@H]1CCC(C)=C[C@@H]21 [THC, tetrahydrocannabinol] | 13–14% | 4–12% | 10% to 35% |  |  |  |  |  |
| C=C(C)[C@@H]1CCC(C)=C[C@H]1c1c(O)cc(CCCCC)c(C(=O)O)c1O [CBDA, cannabidiolic acid] |  |  |  | ~2.9 |  |  |  |  |
| C=C(C)[C@@H]1CCC(C)=C[C@H]1c1c(O)cc(CCCCC)cc1O [CBD, cannabidiol] | 13–19% | ≈ 6% | 11–45% |  | less than 3% | less than 10% | 29 | 9.3–10.3 |
| CCCCCc1cc(O)c2c(c1)OC(C)(CCC=C(C)C)C=C2 (stereo not drawn) [CBC, cannabichromene] |  |  |  | 9.5–10.3 |  |  |  |  |
